Reference: ChEMBL document CHEMBL1201862, “PubChem BioAssay data set” (2004)
Calls of active or inactive are those of the source.

How the values were obtained:
[1] = molecular target: Voltage-dependent T-type calcium channel subunit alpha-1H (Homo sapiens, UniProt O95180); format: functional;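 also: channel activity triggered by adding a high calcium stimulation buffer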
[2] = viability loss in CEM21 cells – cell-based, CellTiter-Glo luminescence, cherry-picked, cytotoxicity control for viral fusion inhibitor project, dose response (AID 652042); format: functional;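 also: potency for signal decrease meaning cytotoxicity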
[3] = blockers of HIV-1 envelope-mediated cell-cell fusion – cherry-pick, dose response (AID 652057); format: functional, cell-based
[4] = HIV-1 AD8 envelope cell-cell fusion blockers – cherry-pick, dose response (AID 652062); format: functional, cell-based;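 also: luciferase signal from cell-cell fusion driven by HIV-1 clade B AD8 Env; potency is for inhibitors of fusion seen as a drop in luminescence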
HEK293 [5] = experiment: cells; format: functional, cell-based; conditions: Homo sapiens
HEK293 [6] = experiment: NOD2 signaling inhibitors in MDP-stimulated cells, cell-based, uHTS, luminescence (AID 2001); format: functional; conditions: Homo sapiens
HEK293 [7] = experiment: cells; format: functional, cell-based; conditions: Homo sapiens; remark: listed apart in the source
HEK293 [8] = experiment: inhibition of NOD1-driven NF-kB reporter – cell-based, luminescence, uHTS, primary screen (AID 1578); format: functional; conditions: Homo sapiens
[9] = molecular target: T1, Ubiquitin-conjugating enzyme E2 N (Homo sapiens, UniProt P61088); format: functional;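 also: Dose-response confirmation in a TR-FRET assay detecting UBC13-driven polyubiquitin chain formation, inhibition measured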
T1 sequence (P61088 whole entry): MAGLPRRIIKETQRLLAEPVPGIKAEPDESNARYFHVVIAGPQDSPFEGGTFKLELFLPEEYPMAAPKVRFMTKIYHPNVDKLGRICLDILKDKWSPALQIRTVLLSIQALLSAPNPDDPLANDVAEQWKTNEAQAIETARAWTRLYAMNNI

Protein RecA = molecular target: T2, Protein RecA (Mycobacterium tuberculosis, UniProt P9WHJ3); experiment: Fluorescence Cell-Free Homogeneous Dose Retest to Identify Inhibitors of RecA-Intein Splicing Activity. [Related pubchem assays (depositor defined):AID2097, AID2223, AID489010, AID492950]; format: functional
T2 sequence (P9WHJ3 whole entry): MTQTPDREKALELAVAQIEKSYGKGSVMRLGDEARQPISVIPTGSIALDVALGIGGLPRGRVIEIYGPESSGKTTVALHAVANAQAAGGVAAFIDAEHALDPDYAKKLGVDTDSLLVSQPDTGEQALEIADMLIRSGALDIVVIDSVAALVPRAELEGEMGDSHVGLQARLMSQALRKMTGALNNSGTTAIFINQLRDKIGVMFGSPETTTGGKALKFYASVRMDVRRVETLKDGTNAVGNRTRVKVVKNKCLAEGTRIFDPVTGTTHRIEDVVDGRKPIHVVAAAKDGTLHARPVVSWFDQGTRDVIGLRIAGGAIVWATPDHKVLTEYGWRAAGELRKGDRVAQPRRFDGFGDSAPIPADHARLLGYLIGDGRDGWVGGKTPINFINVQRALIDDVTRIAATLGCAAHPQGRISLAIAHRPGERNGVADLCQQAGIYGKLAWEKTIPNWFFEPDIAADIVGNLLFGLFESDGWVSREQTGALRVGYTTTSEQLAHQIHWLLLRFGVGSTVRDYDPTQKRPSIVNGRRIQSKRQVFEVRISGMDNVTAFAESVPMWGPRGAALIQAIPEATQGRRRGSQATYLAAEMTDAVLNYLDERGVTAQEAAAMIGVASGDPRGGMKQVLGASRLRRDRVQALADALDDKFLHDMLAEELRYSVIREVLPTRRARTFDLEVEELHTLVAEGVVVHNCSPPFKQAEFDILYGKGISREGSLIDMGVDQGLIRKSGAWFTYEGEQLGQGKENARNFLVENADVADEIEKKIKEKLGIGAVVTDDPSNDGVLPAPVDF

Aminopeptidase N = molecular target: T3, Aminopeptidase N (Plasmodium falciparum FcB1/Columbia, UniProt O96935); experiment: malaria alanyl aminopeptidase activity blockers – biochemical, fluorogenic H-Leu-NHMec substrate, 1536-well (AID 1445); parameters: species or system Plasmodium falciparum 3D7, 3D7
T3 sequence (O96935 whole entry): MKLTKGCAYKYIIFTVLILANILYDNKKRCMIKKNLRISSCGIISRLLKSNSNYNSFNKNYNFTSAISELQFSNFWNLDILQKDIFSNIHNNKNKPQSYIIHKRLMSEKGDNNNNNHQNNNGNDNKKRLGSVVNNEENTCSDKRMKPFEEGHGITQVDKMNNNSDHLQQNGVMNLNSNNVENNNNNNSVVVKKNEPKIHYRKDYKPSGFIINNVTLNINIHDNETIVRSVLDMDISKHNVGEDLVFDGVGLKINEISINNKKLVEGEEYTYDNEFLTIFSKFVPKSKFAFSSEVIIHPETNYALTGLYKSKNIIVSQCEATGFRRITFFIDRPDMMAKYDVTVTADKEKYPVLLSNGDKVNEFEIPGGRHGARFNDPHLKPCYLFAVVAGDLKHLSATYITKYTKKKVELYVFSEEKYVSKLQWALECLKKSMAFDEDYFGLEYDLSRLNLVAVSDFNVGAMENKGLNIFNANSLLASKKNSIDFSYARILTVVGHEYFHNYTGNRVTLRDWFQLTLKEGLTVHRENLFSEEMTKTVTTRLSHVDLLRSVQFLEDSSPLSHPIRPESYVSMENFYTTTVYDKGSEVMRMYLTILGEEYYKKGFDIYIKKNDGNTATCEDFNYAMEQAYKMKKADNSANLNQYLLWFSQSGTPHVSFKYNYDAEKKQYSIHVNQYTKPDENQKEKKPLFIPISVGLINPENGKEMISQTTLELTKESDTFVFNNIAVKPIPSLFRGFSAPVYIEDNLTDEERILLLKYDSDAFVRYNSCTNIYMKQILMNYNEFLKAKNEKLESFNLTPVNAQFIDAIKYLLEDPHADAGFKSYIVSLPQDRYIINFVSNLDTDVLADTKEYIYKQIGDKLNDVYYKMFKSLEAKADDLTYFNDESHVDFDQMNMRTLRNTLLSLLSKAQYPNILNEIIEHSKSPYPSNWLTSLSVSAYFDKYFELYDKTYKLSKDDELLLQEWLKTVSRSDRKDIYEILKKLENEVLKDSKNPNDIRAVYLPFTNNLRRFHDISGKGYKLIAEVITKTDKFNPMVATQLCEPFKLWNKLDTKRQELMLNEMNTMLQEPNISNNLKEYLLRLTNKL

[10] = molecular target: T4, Replicative DNA helicase DnaB (Mycobacterium tuberculosis, UniProt P9WMR3); experiment: DnaB intein splicing inhibitors, dose response, biochemical, cell-free fluorescence (AID 449749); format: functional
T4 sequence (P9WMR3 whole entry): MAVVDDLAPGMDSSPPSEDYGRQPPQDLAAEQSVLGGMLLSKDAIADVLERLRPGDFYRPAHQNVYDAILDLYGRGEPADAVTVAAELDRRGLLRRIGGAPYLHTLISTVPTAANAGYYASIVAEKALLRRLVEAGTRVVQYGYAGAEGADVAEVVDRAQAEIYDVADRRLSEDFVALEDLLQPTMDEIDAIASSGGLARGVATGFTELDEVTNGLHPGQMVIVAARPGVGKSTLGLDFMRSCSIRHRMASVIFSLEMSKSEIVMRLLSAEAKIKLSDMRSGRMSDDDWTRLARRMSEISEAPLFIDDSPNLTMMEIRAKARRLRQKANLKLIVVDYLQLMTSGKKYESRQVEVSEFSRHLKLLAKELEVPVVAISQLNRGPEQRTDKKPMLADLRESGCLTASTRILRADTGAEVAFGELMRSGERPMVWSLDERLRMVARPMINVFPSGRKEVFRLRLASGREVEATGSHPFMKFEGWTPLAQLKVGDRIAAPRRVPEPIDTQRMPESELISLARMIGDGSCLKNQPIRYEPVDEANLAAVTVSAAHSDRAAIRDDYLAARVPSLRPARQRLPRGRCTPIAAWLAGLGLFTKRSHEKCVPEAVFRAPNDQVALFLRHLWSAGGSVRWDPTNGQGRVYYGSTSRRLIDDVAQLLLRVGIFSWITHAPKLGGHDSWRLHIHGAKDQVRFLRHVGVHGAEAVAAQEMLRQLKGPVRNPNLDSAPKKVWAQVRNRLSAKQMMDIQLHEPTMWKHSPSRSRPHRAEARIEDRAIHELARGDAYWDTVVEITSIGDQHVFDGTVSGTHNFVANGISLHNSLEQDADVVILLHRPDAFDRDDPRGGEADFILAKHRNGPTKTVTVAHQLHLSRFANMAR

[11] = Luminescence Cell-Based Dose Retest to Confirm Inhibitors of Cancer Stem Cells. [Related pubchem assays (depositor defined):AID2717, AID2721]; format: functional; conditions: Homo sapiens
cells [12] = experiment: cells
[13] = viability of uninfected HEp-2 cells – cell-based, HTS, cytotoxicity control for RSV inhibitor project, dose response (AID 2410); format: functional; conditions: human respiratory syncytial virus
[14] = molecular target: T5, Alkaline phosphatase, tissue-nonspecific isozyme (Homo sapiens, UniProt P05186); experiment: potency against alkaline phosphatase TNAP – biochemical, luminescent, dose response, SAR follow-up (AID 1056)
T5 sequence (P05186 whole entry): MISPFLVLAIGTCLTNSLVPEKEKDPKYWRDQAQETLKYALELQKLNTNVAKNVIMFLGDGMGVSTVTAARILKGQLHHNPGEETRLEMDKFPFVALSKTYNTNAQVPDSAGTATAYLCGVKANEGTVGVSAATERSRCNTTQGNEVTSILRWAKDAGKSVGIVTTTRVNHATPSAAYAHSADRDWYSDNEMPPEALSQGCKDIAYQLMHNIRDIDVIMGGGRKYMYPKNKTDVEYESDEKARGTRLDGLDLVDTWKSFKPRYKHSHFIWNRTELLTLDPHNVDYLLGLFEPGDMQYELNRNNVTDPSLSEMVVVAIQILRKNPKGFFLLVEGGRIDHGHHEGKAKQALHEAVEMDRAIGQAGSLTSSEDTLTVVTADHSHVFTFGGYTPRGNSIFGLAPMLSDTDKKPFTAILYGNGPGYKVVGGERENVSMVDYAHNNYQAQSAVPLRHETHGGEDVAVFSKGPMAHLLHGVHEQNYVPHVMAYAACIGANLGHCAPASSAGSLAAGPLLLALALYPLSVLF

[15] = molecular target: Glyceraldehyde-3-phosphate dehydrogenase (Homo sapiens, UniProt P04406)
Sequence of Glyceraldehyde-3-phosphate dehydrogenase (P04406 whole entry): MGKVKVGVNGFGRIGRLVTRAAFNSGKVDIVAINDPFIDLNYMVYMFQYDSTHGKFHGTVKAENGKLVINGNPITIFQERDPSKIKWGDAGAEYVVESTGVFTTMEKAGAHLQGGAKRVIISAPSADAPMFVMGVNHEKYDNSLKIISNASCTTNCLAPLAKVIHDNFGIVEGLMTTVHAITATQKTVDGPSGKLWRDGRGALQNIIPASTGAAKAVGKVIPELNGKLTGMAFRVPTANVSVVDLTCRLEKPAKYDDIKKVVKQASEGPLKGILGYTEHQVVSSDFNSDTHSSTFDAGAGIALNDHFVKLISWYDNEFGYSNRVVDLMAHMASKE

Cytochrome P450 3A4 = Cytochrome P450 3A4 (Homo sapiens, UniProt P08684); conditions: Potency;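 also: confirmatory qHTS run detecting inhibitors and substrates of CYP3A4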
Sequence of Cytochrome P450 3A4 (P08684 whole entry): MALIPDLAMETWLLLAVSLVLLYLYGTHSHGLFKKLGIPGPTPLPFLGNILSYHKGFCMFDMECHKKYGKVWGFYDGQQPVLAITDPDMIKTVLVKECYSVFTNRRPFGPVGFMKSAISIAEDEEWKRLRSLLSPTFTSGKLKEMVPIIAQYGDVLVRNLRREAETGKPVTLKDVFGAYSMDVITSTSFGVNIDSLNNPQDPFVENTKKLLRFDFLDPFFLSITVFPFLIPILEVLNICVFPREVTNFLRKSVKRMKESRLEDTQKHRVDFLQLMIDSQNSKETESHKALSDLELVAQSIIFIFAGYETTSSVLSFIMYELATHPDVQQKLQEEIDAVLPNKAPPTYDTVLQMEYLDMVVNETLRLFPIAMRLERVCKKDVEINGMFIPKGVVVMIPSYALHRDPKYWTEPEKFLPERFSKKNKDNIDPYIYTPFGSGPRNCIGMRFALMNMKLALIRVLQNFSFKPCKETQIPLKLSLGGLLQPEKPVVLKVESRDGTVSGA

Fatty acid synthase [16] = molecular target: T6, Fatty acid synthase (Homo sapiens, UniProt P49327); experiment: inhibition of human FAS-TE enzyme activity – biochemical, kinetic fluorescence intensity, dose response (AID 624326); format: functional;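 also: rate of fluorescence rise from hydrolysis of a fluorogenic O-methyl fluorescein ester substrate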
Fatty acid synthase [17] = molecular target: T6, Fatty acid synthase; experiment: inhibition of human FAS-TE enzyme activity – biochemical, endpoint fluorescence intensity, uHTS hits, dose response (AID 624327); format: functional;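 also: fluorescence from hydrolysis of an O-methyl fluorescein acyl ester substrate by the enzyme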
[18] = HepG2 cell cytotoxicity, dose response, cytotoxicity control for non-replicating M. tuberculosis project (AID 489018); format: functional; conditions: Mycobacterium tuberculosis
[19] = THP-1 cell cytotoxicity, dose response, cytotoxicity control for non-replicating M. tuberculosis project (AID 489025); format: functional
cells [20] = format: functional

Sequence of Voltage-dependent T-type calcium channel subunit alpha-1H (O95180 whole entry, the tested form may be a part): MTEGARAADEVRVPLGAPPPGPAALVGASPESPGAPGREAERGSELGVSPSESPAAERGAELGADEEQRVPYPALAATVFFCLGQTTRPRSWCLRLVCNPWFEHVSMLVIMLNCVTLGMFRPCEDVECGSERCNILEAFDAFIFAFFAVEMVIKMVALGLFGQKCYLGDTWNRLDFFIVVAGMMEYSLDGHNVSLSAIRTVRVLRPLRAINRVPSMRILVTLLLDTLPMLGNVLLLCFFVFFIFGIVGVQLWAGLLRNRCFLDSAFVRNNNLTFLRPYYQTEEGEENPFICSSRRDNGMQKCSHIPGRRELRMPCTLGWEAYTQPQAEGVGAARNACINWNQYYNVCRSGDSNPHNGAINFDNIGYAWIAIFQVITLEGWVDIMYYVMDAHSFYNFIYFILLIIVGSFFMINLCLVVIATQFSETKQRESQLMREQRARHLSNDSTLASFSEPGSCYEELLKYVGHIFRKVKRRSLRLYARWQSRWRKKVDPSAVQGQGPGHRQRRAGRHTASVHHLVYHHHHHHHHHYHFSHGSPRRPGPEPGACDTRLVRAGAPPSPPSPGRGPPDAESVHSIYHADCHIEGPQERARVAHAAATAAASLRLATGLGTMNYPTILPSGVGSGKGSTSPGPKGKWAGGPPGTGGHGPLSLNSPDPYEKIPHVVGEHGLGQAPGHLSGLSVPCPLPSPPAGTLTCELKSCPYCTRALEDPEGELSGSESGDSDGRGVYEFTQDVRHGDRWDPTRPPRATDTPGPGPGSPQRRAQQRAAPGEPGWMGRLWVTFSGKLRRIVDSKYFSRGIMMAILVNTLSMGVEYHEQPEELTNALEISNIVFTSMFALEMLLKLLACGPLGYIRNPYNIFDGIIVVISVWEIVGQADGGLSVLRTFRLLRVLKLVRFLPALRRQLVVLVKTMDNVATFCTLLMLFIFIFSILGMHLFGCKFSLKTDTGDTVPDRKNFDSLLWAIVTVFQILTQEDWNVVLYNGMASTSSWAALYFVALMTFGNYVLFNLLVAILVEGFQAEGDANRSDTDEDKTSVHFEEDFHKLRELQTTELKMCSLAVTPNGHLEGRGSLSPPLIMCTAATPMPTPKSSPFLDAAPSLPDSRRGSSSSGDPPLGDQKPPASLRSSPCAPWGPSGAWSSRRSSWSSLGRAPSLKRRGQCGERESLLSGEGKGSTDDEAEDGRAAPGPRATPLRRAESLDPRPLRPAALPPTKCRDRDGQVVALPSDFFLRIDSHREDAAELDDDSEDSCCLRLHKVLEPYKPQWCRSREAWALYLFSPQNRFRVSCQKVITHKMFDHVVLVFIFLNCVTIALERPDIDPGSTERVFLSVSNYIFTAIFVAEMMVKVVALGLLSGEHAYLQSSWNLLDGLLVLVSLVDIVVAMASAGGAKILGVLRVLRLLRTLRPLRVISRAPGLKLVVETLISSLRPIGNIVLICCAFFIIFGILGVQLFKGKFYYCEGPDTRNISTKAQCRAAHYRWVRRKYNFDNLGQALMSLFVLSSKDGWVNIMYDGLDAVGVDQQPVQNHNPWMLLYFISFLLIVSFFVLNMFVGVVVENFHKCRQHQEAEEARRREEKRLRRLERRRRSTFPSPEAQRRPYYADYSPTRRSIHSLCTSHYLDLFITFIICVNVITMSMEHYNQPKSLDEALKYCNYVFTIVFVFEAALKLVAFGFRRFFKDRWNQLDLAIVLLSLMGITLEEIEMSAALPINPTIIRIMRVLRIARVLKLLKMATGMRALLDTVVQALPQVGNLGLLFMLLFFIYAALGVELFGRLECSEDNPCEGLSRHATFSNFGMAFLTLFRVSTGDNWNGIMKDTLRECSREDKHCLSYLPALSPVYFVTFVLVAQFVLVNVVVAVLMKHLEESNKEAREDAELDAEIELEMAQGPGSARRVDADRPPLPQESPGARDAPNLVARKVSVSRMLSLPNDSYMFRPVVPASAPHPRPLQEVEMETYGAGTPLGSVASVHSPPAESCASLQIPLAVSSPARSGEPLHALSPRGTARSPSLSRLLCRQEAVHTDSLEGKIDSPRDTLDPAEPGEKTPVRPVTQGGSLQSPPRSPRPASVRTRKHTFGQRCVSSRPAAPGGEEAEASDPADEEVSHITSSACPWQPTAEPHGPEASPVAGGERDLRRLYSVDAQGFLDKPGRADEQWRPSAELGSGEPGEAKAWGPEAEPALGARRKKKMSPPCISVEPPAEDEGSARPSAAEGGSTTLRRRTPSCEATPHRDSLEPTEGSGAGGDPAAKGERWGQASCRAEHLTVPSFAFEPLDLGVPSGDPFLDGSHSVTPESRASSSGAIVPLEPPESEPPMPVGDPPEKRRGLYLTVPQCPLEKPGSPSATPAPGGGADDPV

## Cc1cccc(N2CCN(C(=O)CCCSc3nc4ccccc4[nH]3)CC2)c1C
[1]
  EC50: 5.23 µM (active)
[2]
  AC50: 50.8 µM (active)
[3]
  AC50: 46.1 µM (active)
[4]
  AC50: 12.3 µM (active)

## CN(C(=O)C(C)(C)C)c1ccc(OCC(=O)N2CCc3ccccc3C2)cc1
HEK293 [5]
  IC50: 12.9 µM (active)
HEK293 [6]
  IC50: 18.1 µM (inactive)
HEK293 [7]
  IC50: > 20 µM (inactive)
HEK293 [8]
  EC50: 4.6 µM (active)

## COc1ccc(C[C@H]2CN3C(=NC[C@@H]3Cc3ccc(O)cc3)N2C[C@H](C)NC(=O)c2ccc(C)c(Br)c2)cc1
[9]
  IC50: > 20 µM (inactive)

## COc1cc(Br)c(C2C(C#N)=C(N)Oc3[nH]nc(-c4cccnc4)c32)cc1OC (stereo not drawn)
Protein RecA
  EC50: 8.6 µM (active)
Aminopeptidase N
  IC50: 44.6 µM (active)
[10]
  AC50: 35 µM (active)

## COCCNc1cc(-c2ccccc2)nc2cc(-c3cccc(F)c3)nn12
[11]
  AC50: 6.74 µM (active)
Cells [12]
  IC50: 41.8 µM (active)
[13]
  CC50: 35.1 µM (active)

## COc1ccc(S(=O)(=O)Nc2cccnc2)cc1OC
[14]
  IC50: > 100 µM (inactive)
[15]
  IC50: > 100 µM (not active)

## CCCN1[C@@H]2C[C@@H](O)CC[C@@H]2C[C@H]1C(=O)OC
Cytochrome P450 3A4
  AC50: 25.1 µM (inconclusive)

## COc1ccc(-c2csc(NC(=O)C3=NN(c4ccccc4)C(=O)CC3)n2)cc1
HEK293 [5]
  IC50: 5.51 µM (active)
HEK293 [6]
  IC50: 5.67 µM (inactive)
HEK293 [7]
  IC50: 17.5 µM (active)
HEK293 [8]
  EC50: 15.7 µM (active)

## Cc1cccn2c(=O)c(/C=C(\C#N)C(=O)NCc3ccco3)c(N3CCCCCC3)nc12
Cells [12]
  IC50: 22.5 µM (active)
Fatty acid synthase [16]
  IC50: 9.53 µM (active)
[13]
  CC50: 22 µM (active)
Fatty acid synthase [17]
  IC50: 21.9 µM (inactive)

## C=CCc1ccc(OCC(O)COc2ccc(CC=C)cc2OC)c(OC)c1
[1]
  EC50: 6.12 µM (active)

## COc1cc(/C=C/C(=O)c2cccs2)cc(OC)c1OC
Cytochrome P450 3A4
  AC50: 3.16 µM (inconclusive)

## c1ccc(-c2cc3c(nc2-c2ccccc2)CCNC3)cc1
Cytochrome P450 3A4
  AC50: 5.01 µM (inconclusive)

## Cc1ccc(-n2ncc(C(=O)NCc3ccc4c(c3)OCO4)c2NC(=O)c2ccco2)cc1C
[1]
  EC50: 1.89 µM (active)

## COc1ccc(-c2csc(NC(C)c3nc4cc(C(=O)NCCCO)ccc4n3Cc3ccc(C)cc3)n2)cc1 (stereo not drawn)
[9]
  IC50: > 20 µM (inactive)

## CC(/C=C/c1ccco1)=N\NC(=O)c1cccc(Cl)c1
[18]
  CC50: > 20 µM (active)
[19]
  CC50: > 40 µM (active)
Cells [20]
  IC50: 6.09 µM (active)

## Clc1ccc(/C=N/Nc2nnn[nH]2)cc1
Aminopeptidase N
  IC50: 92.8 µM (active)

## Cc1ccc(-c2cc(C(=O)O)[nH]n2)cc1
[14]
  IC50: 8.71 µM (active)
[15]
  IC50: > 100 µM (not active)

## COc1nc(N=C(N)N)nc2c(C)cccc12
Aminopeptidase N
  IC50: 22.2 µM (active)
